Results on ten molecules are retold here after patent publication US6204295A, “Antioxidant compounds” (Orion Corporation, priority 1996, dated 2001).

Like-named read-outs stand apart in the source and are kept apart here.

Assay [1] deals with lipid peroxidation in rat liver microsomes. The assay is described as follows: Inhibition of ascorbate/ADP-FeCl3-induced lipid peroxidation in rat liver microsomes (TBA reactive material). The format is biochemical, rat (Sprague-Dawley). The conditions noted are these: rat liver microsomes 1.2 mg protein/ml, pH 6.0, 20 min at 37° C., read-out: IC50 values for the inhibition of microsomal lipid peroxidation, initiated by Ascorbate/ADP-FeCl3. (In general: Liver microsomes are vesicles of endoplasmic reticulum, rich in cytochrome P450 enzymes.)
Description: (§2) Adult male Sprague-Dawley rats were decapitated, and the liver was excised and chilled in ice-cold 0.25 M sucrose solution. A 20% (w/v) liver homogenate was prepared in the sucrose solution (0° C.) with a homogenizer. Microsomes were prepared from the postmitochondrial (12000×g for 10 min at 4° C.) supernatant fluid by centrifugation (105000×g for 10 min at 4° C.).
(§3) The antioxidant properties of the compounds were estimated by their potency to inhibit t-butylhydroperoxide (t-BuOOH) or ascorbate/ADP-FeCl3 -induced lipid peroxidation in rat liver microsomes in vitro. In the t-BuOOH assay the buffer (50 mM sodium carbonate, pH 10.2, with 0.1 mM EDTA) was pipetted in a volume of 0.8 ml in the luminometer cuvette. 20 μl of diluted rat liver microsomes (final concentration 1.5 μg protein/ml) was added, followed by 6 μl of luminol (0.5 mg/ml) and test compounds. The reaction was initiated by 0.05 ml of 0.9 mM t-BuOOH at 33° C. The chemiluminescence was measured for about 45 min and the area under the curve was calculated. In the ascorbate/ADP-FeCl3 assay microsomes (final concentration 1.2 mg protein/ml) in 20 mM phosphate buffer, including 90 mM KCl, were incubated for 20 min at 37° C. in the presence of ascorbate (0.5 mM final concentration; pH of the buffer 6.0), ADP and FeCl3 (final concentrations 0.85 and 0.05 mM, respectively) and test compounds. Total incubation volume was 0.5 ml. The incubation was stopped by addition of 0.5 ml of 30% trichloroacetic acid plus 0.05 ml 2% butylated hydroxytoluene in ethanol. The extent of lipid peroxidation was estimated by the amount of thiobarbituric acid (TBA) reactive material formed.
(§4) IC50 value means concentration of test compound that inhibits lipid peroxidation by 50%.

Assay [2] has the same test system. As to the kind of experiment: Inhibition of t-butylhydroperoxide-induced lipid peroxidation in rat liver microsomes (luminol chemiluminescence). It counts as biochemical, rat (Sprague-Dawley). The conditions noted are these: for IC50: t-BuOOH, rat liver microsomes 1.5 μg protein/ml, pH 10.2, 33° C., about 45 min, read-out: IC50 values for the inhibition of microsomal lipid peroxidation, initiated by t-Butylhydroperoxide; for antioxidant potency in the t-BuOOH test compared with butylated hydroxyanisole: in words, versus butylated hydroxyanisole.
Description: as §2, §3, §4

Assay [3] deals with T1, NADPH oxidase of the neutrophils (Homo sapiens, UniProt P04839).
T1 construct: Neutrophils were isolated from 30 ml freshly drawn heparinized whole blood; endogenous in cells; host or cells: neutrophils isolated from freshly drawn heparinized whole blood
T1 sequence (P04839 2-570 limits assumed): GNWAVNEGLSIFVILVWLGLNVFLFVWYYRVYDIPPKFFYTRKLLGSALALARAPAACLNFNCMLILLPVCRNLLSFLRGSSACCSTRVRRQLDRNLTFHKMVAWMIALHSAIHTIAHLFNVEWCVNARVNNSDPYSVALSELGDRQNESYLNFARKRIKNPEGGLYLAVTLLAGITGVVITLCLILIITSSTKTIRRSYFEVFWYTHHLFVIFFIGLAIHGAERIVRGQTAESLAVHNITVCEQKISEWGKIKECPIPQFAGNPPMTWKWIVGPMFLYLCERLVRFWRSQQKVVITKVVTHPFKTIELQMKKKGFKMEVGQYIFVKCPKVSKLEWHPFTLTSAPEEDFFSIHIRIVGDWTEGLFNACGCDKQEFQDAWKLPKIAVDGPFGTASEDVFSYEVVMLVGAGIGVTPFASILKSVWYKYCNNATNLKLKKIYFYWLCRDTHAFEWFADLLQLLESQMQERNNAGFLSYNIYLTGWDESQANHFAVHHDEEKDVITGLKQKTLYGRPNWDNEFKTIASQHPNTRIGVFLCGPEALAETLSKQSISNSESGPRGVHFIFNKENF
T1 sequence (P13498 2-195 partner limits assumed): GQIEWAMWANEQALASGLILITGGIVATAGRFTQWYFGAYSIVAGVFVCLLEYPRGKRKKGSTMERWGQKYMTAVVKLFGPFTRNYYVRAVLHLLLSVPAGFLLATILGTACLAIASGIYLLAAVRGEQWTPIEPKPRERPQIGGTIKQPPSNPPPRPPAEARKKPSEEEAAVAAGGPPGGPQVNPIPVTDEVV
The assay is described as follows: Inhibition of reactive oxygen production (oxidative burst) by PMA-activated neutrophils, luminol enhanced chemiluminescence. The conditions noted are these: for inhibition at 1000 µM: read-out: Inhibition of NADPH oxidase of the neutrophils at 1 mM. It counts as cell-based. The procedure:
Neutrophils were isolated from 30 ml freshly drawn heparinized whole blood, after dextran sedimentation of erythrocytes for 30 min. The leucocyte rich plasma was layered over an equal volume of Percoll (Sigma) and centrifuged at 400 g for 15 min. […] Neutrophils were washed with PBS (pH 7.1) and centrifuged at 200 g for 10 min. Cells were resuspended in fresh HBS (containing […], 0.4 g KCl, 0.06 g Na2 HPO4×2H2 O, 0.06 g KH2 PO4, 0.1 g MgSO4×7H2 O and 1 g glucose in 1000 ml of distilled water; pH adjusted to 7.4 by 7% NaHCO3) and counted before use.
One ml of cell suspension (final cell count 10^6 cells/ml) and the test compound was placed in cuvettes. Production of reactive oxygen by neutrophils ("oxidative burst") was stimulated by addition of phorbol-myristate-acetate (PMA; final concentration 2 μM). The luminol enhanced chemiluminescence was recorded.

Assay [4] deals with serum lipid peroxides (diene conjugation). As to the kind of experiment: In vivo serum lipid peroxides, diene conjugation. Also noted: species or system rat (female Sprague-Dawley). The conditions noted are these: rats; daily oral gavage 12 and 48 mg/kg; 2 days to 12 months; FIG. 1. As to the method:
(§1) Test compound was given to six-week old female Sprague-Dawley rats daily by oral gavage at doses of 12 and 48 mg/kg for 12 months. The vehicle, carboxymethyl cellulose (0.5%), was given to control animals. Five rats per dose group were killed after 2 days, 5 weeks, 3, 6 and 12 months of dosing. Further groups were allowed to recover for 13 weeks without treatment after 6 and 12 months' dosing. The serum levels of lipid peroxides were measured by two different methods (diene conjugation and TBA-reactive material). For the measurement of diene conjugation, lipids extracted from serum samples (100 μl) by chloroform/methanol (2:1), dried under nitrogen and redissolved in cyclohexane, were analyzed spectrophotometrically (at 234 nm). For the analysis of TBA-reactive material serum samples (100 μl) were diluted in phosphate buffer and heated together with a TBA solution ([…]) in a boiling water bath for 15 min. The tubes were cooled, and the absorbances measured at 535 nm.

Assay [5] deals with serum lipid peroxides (TBA-reactive material). As to the kind of experiment: In vivo serum lipid peroxides, TBA-reactive material. Details: species or system rat (female Sprague-Dawley). To be noted: rats; daily oral gavage 12 and 48 mg/kg; 2 days to 12 months; FIG. 2. The procedure:
as §1

Setting [6] is: PMA 2 μM, 10^6 cells/ml, read-out: IC50, inhibition of NADPH oxidase of the neutrophils.

With `C[C@]12CC[C@@H]3c4ccc(O)cc4CC[C@H]3[C@@H]1CC[C@@H]2O` [17β-estradiol], the IC50 in assay [1] was 300 µM; in assay [2] it was 4.6 µM. In assay [3] (1 mM, PMA 2 μM, 10^6 cells/ml), the “Inhibition of NADPH oxidase of the neutrophils at 1 mM” value is “no effect”.
For orientation: inhibition means the relative decrease from the control value, in per cent. On to `CN(C)CCOc1ccc(/C(=C(/CCCl)c2ccccc2)c2ccccc2)cc1` [Compound 1, 4-chloro-1,2-diphenyl-1-[4-[2-(N,N-dimethylamino)ethoxy]phenyl]-1-butene], for which the IC50 in assay [1] came to 18 µM; in assay [2], 450 µM; in assay [3], 2.17 µM. Also, in assay [3], the inhibition at 1000 µM is greater than 99%. Moreover, the “effect on serum diene conjugation” value in assay [4] is “effective in decreasing both diene conjugation and TBA-reactive material in rats”. The “effect on serum TBA-reactive material” value in assay [5] is “effective in decreasing both diene conjugation and TBA-reactive material in rats”.
As for `CN(C)CCOc1ccc(/C(=C(/CCCl)c2ccccc2)c2ccc(O)cc2)cc1` [Compound 2, 4-chloro-1-(4-hydroxyphenyl)-1-[4-[2-(N,N-dimethylamino)ethoxy]phenyl]-2-phenyl-1-butene], the IC50 is 8 µM in assay [1], 0.18 µM in assay [2] and 2.12 µM in assay [3] (setting [6]). Also, in assay [2], the “antioxidant potency in the t-BuOOH test compared with butylated hydroxyanisole” value is reported as “even stronger than that of the known synthetic antioxidant butylated hydroxyanisole”. The inhibition at 1000 µM in assay [3] (1 mM, PMA 2 μM, 10^6 cells/ml) was greater than 99%.
With `CNCCOc1ccc(/C(=C(/CCCl)c2ccccc2)c2ccc(O)cc2)cc1` [Compound 3, 4-chloro-1-(4-hydroxyphenyl)-1-[4-[2-(N-methylamino)ethoxy]phenyl]-2-phenyl-1-butene], the figures for the IC50 in assay [1] and in assay [2] were 31 µM and 27 µM, respectively.
In the case of `CN(C)CCOc1ccc(/C(=C(/CCI)c2ccccc2)c2ccccc2)cc1` [Compound 4, 4-iodo-1,2-diphenyl-1-[4-[2-(N,N-dimethylamino)ethoxy]phenyl]-1-butene], the IC50 was 3 µM in assay [1], 0.38 µM in assay [2] and 2.32 µM in assay [3] (setting [6]). Besides, the “antioxidant potency in the t-BuOOH test compared with butylated hydroxyanisole” value in assay [2] was “even stronger than that of the known synthetic antioxidant butylated hydroxyanisole”. In assay [3] (1 mM, PMA 2 μM, 10^6 cells/ml), the inhibition at 1000 µM is greater than 99%.
With `CN(C)CCOc1ccc(/C(=C(\CCCl)c2ccccc2)c2ccccc2)cc1` [Compound 5, 4-chloro-1,2-diphenyl-1-[4-[2-(N,N-dimethylamino)ethoxy]phenyl]-1-butene], the IC50 in assay [1] came to 36 µM; in assay [2], 410 µM.
For `Cc1c(C)c2c(c(C)c1O)CCC(C)(C(=O)O)O2` (stereo not shown) [Trolox], in assay [3] (1 mM, PMA 2 μM, 10^6 cells/ml), the “Inhibition of NADPH oxidase of the neutrophils at 1 mM” value was “no effect” and the inhibition at 1000 µM came to 59%.
`COc1ccc(O)c(C(C)(C)C)c1` [butylated hydroxyanisole]: the IC50 was 0.2 µM in assay [1] and 1.1 µM in assay [2].
Take `CC/C(=C(/CC)c1ccc(O)cc1)c1ccc(O)cc1` [diethylstilbestrol]: in assay [3], the IC50 amounted to 8 µM and the inhibition at 1000 µM was greater than 99%.
Take `Cc1c(C)c2c(c(C)c1O)CCC(C)(CCCC(C)CCCC(C)CCCC(C)C)O2` (stereo not drawn) [α-tocopherol]: the values for the IC50 in assay [1] and in assay [2] were 43 µM and 2 µM, respectively.
